Reference: patent publication US20110111016A1, “NON-DNA BASE-CONTAINING POLYNUCLEOTIDE COMPOSITIONS AND THEIR USE FOR THE MODULATION OF IMMUNE RESPONSES” (priority 2009, published 2011)

Assays:
Type in all cases: cell-based
NF-κB control cells = assay: NF-κB reporter control cells (secreted alkaline phosphatase); details: at 100 ng/mL, 16-20 hours
Method: (§1) Toll-like receptors (TLR) are known to interact with a number of natural and synthetic molecules that can function as immune adjuvants. Examples of these molecules are Poly (I:C) polynucleotides, lipopolysaccharide and CpG-containing polynucleotides. The interaction of non-DNA base-containing polynucleotides (SEQ ID NOs: 1-3) to interact with TLR and induce down-stream signaling was tested by assessing NF-κB activation in HEK293 cells expressing human TLR2, 3, 4, 5, 7, 8 and 9. TLR engagement was determined by measurement of secreted alkaline phosphatase, under the control of a reporter inducible by NF-κB. Appropriate positive controls were used for each TLR. The non-DNA base-containing polynucleotides were dissolved in sterile water at a concentration of 100 μg/mL, and used at a final concentration of 10 μg/mL. HEK293 cells containing the appropriate TLR and NF-κB reporting system (InvivoGen, San Diego, Calif., USA) were placed in wells of 96 well plates (25,000-50,000 cells, in a final volume of 200 μL medium designed for the detection of NF-κB induced secreted alkaline phosphatase expression), and incubated with non-DNA base-containing polynucleotides or positive controls for 16-20 hours. TLR activating activity was determined by measurement of absorbance at 650 nm wavelength using a Coulter AD340C absorbance detector. The results shown are expressed as Optical Density (OD).

human TLR3 = target: T1, human TLR3 (Homo sapiens, UniProt O15455); assay: NF-κB activation (secreted alkaline phosphatase reporter) in HEK293 cells expressing human TLR3; details: HEK293/hTLR3 cell line; at 1 μg/mL; 16-20 hours
T1 construct: host or cells: HEK293
T1 sequence (O15455 24-904): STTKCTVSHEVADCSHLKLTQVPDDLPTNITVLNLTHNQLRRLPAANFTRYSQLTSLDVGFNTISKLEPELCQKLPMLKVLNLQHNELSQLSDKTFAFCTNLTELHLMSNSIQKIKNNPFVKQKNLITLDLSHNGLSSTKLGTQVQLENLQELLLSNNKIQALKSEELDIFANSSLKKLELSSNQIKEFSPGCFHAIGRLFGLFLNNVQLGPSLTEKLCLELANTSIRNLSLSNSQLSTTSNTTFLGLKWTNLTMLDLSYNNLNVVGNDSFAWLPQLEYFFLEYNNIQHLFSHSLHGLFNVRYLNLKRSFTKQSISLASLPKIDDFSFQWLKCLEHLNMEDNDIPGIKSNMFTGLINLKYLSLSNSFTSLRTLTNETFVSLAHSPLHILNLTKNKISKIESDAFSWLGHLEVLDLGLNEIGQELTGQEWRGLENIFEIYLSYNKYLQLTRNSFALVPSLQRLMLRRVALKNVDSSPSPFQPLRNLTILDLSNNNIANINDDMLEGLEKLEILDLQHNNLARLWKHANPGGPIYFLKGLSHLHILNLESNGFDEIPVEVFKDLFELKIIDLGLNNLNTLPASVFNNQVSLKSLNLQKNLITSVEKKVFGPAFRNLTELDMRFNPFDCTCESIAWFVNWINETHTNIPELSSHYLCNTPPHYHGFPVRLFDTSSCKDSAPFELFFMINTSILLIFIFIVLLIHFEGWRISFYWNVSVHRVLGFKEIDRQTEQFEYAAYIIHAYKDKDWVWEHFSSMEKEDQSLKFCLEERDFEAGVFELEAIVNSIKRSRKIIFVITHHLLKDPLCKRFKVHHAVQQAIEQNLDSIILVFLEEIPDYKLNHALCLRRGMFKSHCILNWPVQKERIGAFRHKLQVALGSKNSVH
Method: as §1

human TLR9 = target: T2, human TLR9 (Homo sapiens, UniProt Q9NR96); assay: NF-κB activation (secreted alkaline phosphatase reporter) in HEK293 cells expressing human TLR9; details: HEK293/hTLR9 cell line; at 100 ng/mL; 16-20 hours
T2 construct: host or cells: HEK293
T2 sequence (Q9NR96 26-1032): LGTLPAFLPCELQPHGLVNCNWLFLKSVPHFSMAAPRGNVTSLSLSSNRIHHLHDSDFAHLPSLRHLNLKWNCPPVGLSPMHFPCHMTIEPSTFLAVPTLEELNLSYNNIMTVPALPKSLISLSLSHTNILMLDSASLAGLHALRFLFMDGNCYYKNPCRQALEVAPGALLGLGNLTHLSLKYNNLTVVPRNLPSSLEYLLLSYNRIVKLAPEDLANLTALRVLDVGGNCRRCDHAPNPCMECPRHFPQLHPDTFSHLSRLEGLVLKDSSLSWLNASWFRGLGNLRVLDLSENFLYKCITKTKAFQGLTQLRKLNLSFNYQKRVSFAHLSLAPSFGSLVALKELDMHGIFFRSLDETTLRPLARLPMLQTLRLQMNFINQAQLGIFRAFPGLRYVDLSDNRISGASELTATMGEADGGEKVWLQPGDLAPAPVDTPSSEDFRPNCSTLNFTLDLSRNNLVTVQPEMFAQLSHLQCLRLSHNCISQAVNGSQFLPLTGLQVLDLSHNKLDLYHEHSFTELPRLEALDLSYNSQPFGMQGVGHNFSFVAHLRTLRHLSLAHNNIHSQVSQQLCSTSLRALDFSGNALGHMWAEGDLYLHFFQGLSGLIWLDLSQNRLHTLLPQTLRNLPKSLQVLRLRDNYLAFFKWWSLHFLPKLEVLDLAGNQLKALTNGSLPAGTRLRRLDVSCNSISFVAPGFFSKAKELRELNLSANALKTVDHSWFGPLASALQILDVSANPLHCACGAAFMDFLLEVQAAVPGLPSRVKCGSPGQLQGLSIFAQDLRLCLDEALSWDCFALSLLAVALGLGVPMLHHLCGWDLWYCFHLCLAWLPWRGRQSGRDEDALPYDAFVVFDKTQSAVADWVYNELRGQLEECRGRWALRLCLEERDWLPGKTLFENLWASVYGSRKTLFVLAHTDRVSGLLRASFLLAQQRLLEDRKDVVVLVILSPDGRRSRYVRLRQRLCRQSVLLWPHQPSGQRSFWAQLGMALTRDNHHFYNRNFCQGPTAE
Method: as §1, with “The non-DNA base-containing polynucleotides were dissolved in sterile water at a concentration of 100 μg/mL, and used at a final concentration of 10 μg/mL.” left out

human PBMC = assay: Induction of cytokines from human PBMC (ELISA cytokine capture assay); details: PBMC of 3 healthy adults, 48 h; increase two-fold that of background control; SEQ ID NOs 1-3 100 μg/mL, CpG 2006 and MCC 1-100 μg/mL, LPS 10 μg/mL
Excerpt: A number of immune adjuvants are known to be capable of eliciting cytokines from human PBMC cells. Examples of such adjuvants are alum, lipopolysaccharide, monophosphoryl lipid A, CpG-containing polynucleotides and non-CpG-containing ODN's, as well as mycobacterial cell wall-DNA complex (MCC). […] PBMC were isolated from whole blood using standard Ficoll-Paque (GE Healthcare Life Sciences, Baie d'Urfé, QC, Canada) gradient centrifugation, and placed in tissue culture plates at a concentration of 10^6 cells/mL (total volume: 1 mL in RPMI 1640 medium containing 10% heat-inactivated FBS, both from Wisent, St-Bruno, QC, Canada) and 50 μg/mL gentamycin sulfate (Sigma-Aldrich Canada, Oakville, ON, Canada). SEQ ID NOs: 1, 2 or 3 were added to give a final concentration of 100 μg/mL, and the cells were cultivated for 48 h. Cytokines (IL-1β, IL-2, IL-6, IL-10 and IL-12p40) in the supernatant at the end of incubation were determined by ELISA using a cytokine capture assay process (Biosource, Camarillo, Calif.). SEQ ID NO: 32 CpG 2006 ODN (1-100 μg/mL, 5′-[…]-3′, […]), MCC (1-100 μg/mL) and LPS (10 μg/mL) were used as positive controls.

human TLR5 = target: T3, human TLR5 (Homo sapiens, UniProt O60602); assay: NF-κB activation (secreted alkaline phosphatase reporter) in HEK293 cells expressing human TLR5; details: HEK293/hTLR5 cell line; at 100 ng/mL; 16-20 hours
T3 construct: host or cells: HEK293
Method: as §1

T3 sequence (O60602 21-858): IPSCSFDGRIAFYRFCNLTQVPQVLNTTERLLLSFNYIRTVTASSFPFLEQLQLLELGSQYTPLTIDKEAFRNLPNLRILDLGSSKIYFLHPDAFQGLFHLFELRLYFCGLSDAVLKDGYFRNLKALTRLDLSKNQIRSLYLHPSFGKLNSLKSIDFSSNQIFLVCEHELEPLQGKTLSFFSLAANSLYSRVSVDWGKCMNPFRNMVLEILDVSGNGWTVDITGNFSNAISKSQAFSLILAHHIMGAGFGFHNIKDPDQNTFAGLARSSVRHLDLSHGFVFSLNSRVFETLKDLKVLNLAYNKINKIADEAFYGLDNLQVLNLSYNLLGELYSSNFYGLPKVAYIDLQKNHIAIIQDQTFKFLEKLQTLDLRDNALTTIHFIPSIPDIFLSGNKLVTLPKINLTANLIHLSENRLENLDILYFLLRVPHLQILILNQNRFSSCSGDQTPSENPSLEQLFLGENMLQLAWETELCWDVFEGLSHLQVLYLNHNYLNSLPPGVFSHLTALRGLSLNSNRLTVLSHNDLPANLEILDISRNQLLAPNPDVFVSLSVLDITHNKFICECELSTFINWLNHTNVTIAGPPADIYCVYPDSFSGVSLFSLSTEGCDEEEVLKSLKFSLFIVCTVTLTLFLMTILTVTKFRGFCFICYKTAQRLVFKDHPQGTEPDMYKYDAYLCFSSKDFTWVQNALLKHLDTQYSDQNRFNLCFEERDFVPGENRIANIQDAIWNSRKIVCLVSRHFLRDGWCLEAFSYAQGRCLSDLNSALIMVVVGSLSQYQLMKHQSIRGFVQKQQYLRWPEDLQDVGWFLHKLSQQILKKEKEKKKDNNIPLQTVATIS

CCCCCCCCCCCCCC(=O)O[C@@H]1[C@@H](C)[C@@]2(O)[C@@H](C=C(CO)C[C@]3(O)C(=O)C(C)=C[C@@H]23)[C@@H]2C(C)(C)[C@]12OC(C)=O [PMA, reference compound]
Optical Density at 650 nm, NF-κB control cells, positive control (NF-κB control cells): 2.765

Poly (I:C) [reference compound]
TLR activation, Optical Density at 650 nm, hTLR3, positive control (human TLR3): 2.547

5′-TCGTCGTTTTGTCGTTTTGTCGTT-3′ [SEQ ID NO: 32 CpG 2006, reference compound]
TLR activation, Optical Density at 650 nm, hTLR9, positive control (human TLR9): 1.904
Number of individuals responding, IL-1β (human PBMC): 0/3
Number of individuals responding, IL-2 (human PBMC): 0/3
Number of individuals responding, IL-6 (human PBMC): 3/3
Number of individuals responding, IL-10 (human PBMC): 2/3
Number of individuals responding, IL-12p40 (human PBMC): 1/3

B1: S. typhimurium flagellin: hTLR5 positive control (protein)
chain: AQVINTNSLSLLTQNNLNKSQSALGTAIERLSSGLRINSAKDDAAGQAIANRFTANIKGLTQASRNANDGISIAQTTEGALNEINNNLQRVRELAVQSANSTNSQSDLDSIQAEITQRLNEIDRVSGQTQFNGVKVLAQDNTLTIQVGANDGETIDIDLKQINSQTLGLDTLNVQQKYKVSDTAATVTGYADTTIALDNSTFKASATGLGGTDQKIDGDLKFDDTTGKYYAKVTVTGGTGKDGYYEVSVDKTNGEVTLAGGATSPLTGGLPATATEDVKNVQVANADLTEAKAALTAAGVTGTASVVKMSYTDNNGKTIDGGLAVKVGDDYYSATQNKDGSISINTTKYTADDGTSKTALNKLGGADGKTEVVSIGGKTYAASKAEGHNFKAQPDLAEAAATTTENPLQKIDAALAQVDTLRSDLGAVQNRFNSAITNLGNTVNNLTSARSRIEDSDYATEVSNMSRAQILQQAGTSVLAQANQVPQNVLSLLR
TLR activation, Optical Density at 650 nm, hTLR5, positive control (human TLR5): 2.593
